According to US7288273B1, “Gallotannins and ellagitannins as regulators of cytokine release” (The Penn State Research Foundation, priority 2000, dated 2007):

Columns and labels:
[1] = system: sarcoma-180 tumors; settings: mice infected with sarcoma-180 tumors; cited from earlier work
[2] = system: TNF-α secretion from h-PBMC's; assay: TNF-α release from h-PBMC's, ELISA; assay type: cell-based, human; settings: for TNF-α secreted in the presence of 17c-21c: 24 hours, ± SD
Description: (§1) Authentic samples of agrimoniin and coriariin A were supplied by Professor Yoshida (Okayama University, Japan). Dimeric gallotannin (analog of coriariin A) and β-D-PGG were synthesized as described. LPS (E. coli 055:B5 phenol extract, MW range 50-100 KD). Ficoll-Histopaque (ρ=1.077 g/mL), Fetal Bovine Serum, sterile, hybridoma tested (FCS), gentamicin 10 mg/mL. L-glutamine, 200 mM. Dextran B-512 Leuconostoc Av M.W. 580000, and Trypan Blue stain were purchased from Sigma. Hanks Buffer Saline Solution 1×, with phenol red, mediatech (HBSS) and RPMI 1640 1×, mediatech were purchased from Fisher Scientific, Human IL-1β and TNF-α Enzyme Linked ImmunoSorbent Assay (ELISA) kits were purchased from R and D Systems, Minneapolis, Minn. Fresh heparinized blood was obtained from health human subjects (ages 20-34).
(§2) Dose-Response Data: General Procedure. H-PBMC's were isolated by reported procedures (10. 18). The cells counted and the viability was determined by Trypan Blue exclusion (typically, viability exceeded 95%). The concentration of the cells in the 0.5 mL wells was adjusted to 1×10^6 cells/well by diluting with the required amount of RPMI.
(§3) The appropriate amount of a tannin (or LPS) stock solution in HBSS was added to each well to furnish the concentration values reported in the Figures. […] The culture plates were incubated in a 5% CO2, 37° C. humidified incubator for the indicated time. At the end of the time interval, 450 μL of the culture supernatant from each well was harvested, after centrifugation at 400 g, 25° C., 10 min. with brake, and stored at −78° C. pending ELISA analysis for the cytokine(s). The ELISA assays were conducted per the manufacturer's instructions using standard calibration curves to calculate cytokine concentration from observed absorbance readings. The cytokine values reported are averages of three runs±SE.
(§4) The dimeric antitumor ellagitannins coriariin A and agrimoniin, the monomeric gallotannin β-D-pentagalloylglucose (β-D-PGG) and the dimeric gallotannin of this invention were all examined in this study. The dimeric gallotannin is an analog of coriariin A and is identical to the parent ellagitannin except that the galloyl rings at O(4) and O(6) are not joined in a hexahydroxydiphenoyl (HHDP) linkage. h-PBMC's were incubated with the compound under investigation for the indicated length of time and the amounts of both IL-1β and, independently, TNF-α, present in the culture supernatants was determined using commercially available ELISA kits. In each case, LPS was used as a positive control while untreated cells were reserved as negative controls.
In the first study, the induction of TNF-α secretion from h-PBMC's in the presence of each compound 17c-21c was measured. The h-PBMC's were incubated with each compound for 24 hours. The TNF-α levels in the cell culture supernatant were assayed by Enzyme Linked ImmunoSorbant Assay (ELISA). The data point for each assay represent the mean of triplicate measurements. […] (See FIG. 11).

[3] = system: IL-1β secretion from h-PBMC's; assay: IL-1β release from h-PBMC's, ELISA; assay type: cell-based, human; settings: h-PBMC's 2nd subject, ± SD
Description: as §1, §2, §3, §4
In the third study, compounds 17c-20c were examined for their ability to induce secretion of IL-1β from h-PBMC's (FIG. 16). Recall from the introduction that the cytokine IL-1β is also released in an LPS-stimulated septic shock response. The compounds that cause very little secretion of IL-1β or none at all will be the optimal compounds for potential septic shock therapeutics because they will be less likely themselves to induce a septic shock response.

[4] = system: LPS induced TNF-α secretion from h-PBMC's; assay: Inhibition of LPS induced TNF-α secretion from h-PBMC's; assay type: cell-based, human; settings: LPS 5 μg/mL; for TNF-α secreted in the presence of LPS and 17c-20c: compound 10 μg/mL added after 45 minutes, h-PBMC's 3rd subject, ± SD
Description: In the second study, the ability of compounds 17c-20c to inhibit LPS induced TNF-α production in h-PBMC's was investigated using four assays. The first experiment was a kinetics run in which the h-PBMC's were initially incubated with a fixed concentration of LPS (5 μg/mL) for 45 minutes. This incubation period was followed by addition of a fixed concentration (10 μg/mL) of compounds 17c-20c. The cells were harvested at varying intervals of time. […] The optimal time was determined by comparing the amount of TNF-α secreted by LPS alone to the amount of TNF-α secreted by LPS and substrate at each time point.
The second assay determined the minimum amount of substrate required for inhibition. LPS (10 μg/mL) was incubated with h-PBMC's for 45 minutes followed by addition of 17c-20c at varying concentrations. The cell culture supernatant was harvested after 8 hours. The inherent variability in using cells from different subjects, or in the day of assay, made it difficult to compare overall effectiveness of inhibitors. Therefore, to more easily identify the concentration at which maximum inhibition occurs for a given compound, the TNF-α secretion was normalized by calculating a percent of maximum secretion value (based on LPS alone) (FIG. 13). […] The optimal concentration for inhibition varied between substrates, but the general dose response trend was the same. Overall, the maximum inhibition was 45% for 18c and 20c, and 25% for 19c.
The third assay investigated the ability of 17c, 18c, and 20c to inhibit LPS induced TNF-α secretion using a smaller dosage of LPS (5 μg/mL) (FIG. 14). Again, the response was dose dependent. The maximum inhibition was 45% for 17c and 20c, and 35% for 18c.
In the fourth assay the varying concentrations of substrates 17c-20c and LPS were added at the same time to determine the effect of addition sequence on the inhibition of TNF-α secretion (FIG. 15). The addition time seemed to make a difference in the overall dose response trend. However, maximum inhibition was the same as when the compounds were added 45 minutes after LPS addition (about 40% for each compound).
Finally, in the last study, analogs 19c and 20c were again tested for inhibition LPS induced TNF-α secretion (FIG. 17). In this assay a smaller dose of LPS was used to determine if inhibition was greater when much lower doses of LPS were present. The substrates were added 45 minutes after LPS addition and the cells were harvested after 8 hours. It doesn't appear as though the substrates are better inhibitors when smaller amounts of LPS are used, again perhaps reflecting receptor saturation with LPS at this dosage.

Compound: gemin A
- antitumor effect, in words [1]: induce tumor regression

Compound: 1,1′-2,2′,3,3′,4,4′,6,6′-Tetrakis(3,4,5-trihyroxybenzoyl)-β,β′-D,D′-glucopyranosyl-(2,3′-oxy-di-benzoate) [Compound 21c]
- TNF-α secretion from h-PBMC's, in words [2]: significant amount of TNF-α secretion
- TNF-α secreted in the presence of 17c-21c ([2]; compound 0.6 μM): 140.7 ± 50.1 pg/mL
- TNF-α secreted in the presence of 17c-21c ([2]; compound 2.8 μM): 80.3 ± 38.1 pg/mL
- TNF-α secreted in the presence of 17c-21c ([2]; compound 5.6 μM): 61.9 ± 11.7 pg/mL
- TNF-α secreted in the presence of 17c-21c ([2]; compound 11.2 μM): 96.2 ± 8.9 pg/mL
- TNF-α secreted in the presence of 17c-21c ([2]; compound 16.8 μM): 379.3 ± 156.6 pg/mL
- TNF-α secreted in the presence of 17c-21c ([2]; compound 22.3 μM): 618.0 ± 182.0 pg/mL
- TNF-α secreted in the presence of 17c-21c ([2]; compound 27.9 μM): 899.0 ± 368.4 pg/mL

Compound: O=C(OC[C@H]1O[C@@H](OC(=O)c2ccc(C(=O)O[C@@H]3O[C@H](COC(=O)c4cc(O)c(O)c(O)c4)[C@@H](OC(=O)c4cc(O)c(O)c(O)c4)[C@H](OC(=O)c4cc(O)c(O)c(O)c4)[C@H]3OC(=O)c3cc(O)c(O)c(O)c3)cc2)[C@H](OC(=O)c2cc(O)c(O)c(O)c2)[C@@H](OC(=O)c2cc(O)c(O)c(O)c2)[C@@H]1OC(=O)c1cc(O)c(O)c(O)c1)c1cc(O)c(O)c(O)c1 [Compound 17c, 1,1′-O-2,2′,3,3′,4,4′,6,6′-Tetrakis(3,4,5-trihydroxybenzoyl)-β,β′-D,D′-glucopyranosylterephthalate]
- IL-1β secreted in the presence of 17c-20c ([3]; compound 0.6 μM): 0 pg/mL
- IL-1β secreted in the presence of 17c-20c ([3]; compound 2.9 μM): 0 pg/mL
- IL-1β secreted in the presence of 17c-20c ([3]; compound 5.9 μM): 3.2 ± 3.6 pg/mL
- IL-1β secreted in the presence of 17c-20c ([3]; compound 11.8 μM): 329.7 ± 443.0 pg/mL
- IL-1β secreted in the presence of 17c-20c ([3]; compound 17.6 μM): 140.5 ± 195.6 pg/mL
- IL-1β secreted in the presence of 17c-20c ([3]; compound 23.5 μM): 630.6 ± 283.1 pg/mL
- IL-1β secreted in the presence of 17c-20c ([3]; compound 29.4 μM): 690.1 ± 101.0 pg/mL
- TNF-α secreted in the presence of 17c-21c ([2]; compound 0.6 μM): 0 pg/mL
- TNF-α secreted in the presence of 17c-21c ([2]; compound 2.9 μM): 0 pg/mL
- TNF-α secreted in the presence of 17c-21c ([2]; compound 5.9 μM): 0 pg/mL
- TNF-α secreted in the presence of 17c-21c ([2]; compound 11.8 μM): 0.26 ± 0.37 pg/mL
- TNF-α secreted in the presence of 17c-21c ([2]; compound 17.6 μM): 0 pg/mL
- TNF-α secreted in the presence of 17c-21c ([2]; compound 23.5 μM): 0.26 ± 0.37 pg/mL
- TNF-α secreted in the presence of 17c-21c ([2]; compound 29.4 μM): 2.5 ± 3.5 pg/mL
- TNF-α secreted in the presence of LPS and 17c-20c ([4]; time 1 h): 511.2 ± 288.3 pg/mL
- TNF-α secreted in the presence of LPS and 17c-20c ([4]; time 4 h): 1896.3 ± 140.9 pg/mL
- TNF-α secreted in the presence of LPS and 17c-20c ([4]; time 8 h): 2477.0 ± 148.2 pg/mL
- TNF-α secreted in the presence of LPS and 17c-20c ([4]; time 12 h): 2574.4 ± 459.9 pg/mL
- TNF-α secreted in the presence of LPS and 17c-20c ([4]; time 16 h): 1811.6 ± 352.9 pg/mL
- TNF-α secreted in the presence of LPS and 17c-20c ([4]; time 24 h): 2266.1 ± 353.3 pg/mL
- maximum inhibition of LPS induced TNF-α secretion ([4]; 3rd subject): 45%

Compound: O=C(OC1O[C@@H]2COC(=O)c3cc(O)c(O)c(O)c3-c3c(cc(O)c(O)c3O)C(=O)O[C@H]2[C@H](OC(=O)c2cc(O)c(O)c(O)c2)[C@H]1OC(=O)c1cc(O)c(O)c(O)c1)c1cc(O)c(O)c(O)c1 (stereo partly drawn) [Compound 2, tellimagrandin II]
- antitumor effect, in words [1]: much less effective antitumor agents

Compound: O=C(O[C@H]1[C@@H]2OC(=O)c3cc(O)c(O)c(O)c3-c3c(cc(O)c(O)c3O)C(=O)OC[C@H]2OC(O)[C@@H]1OC(=O)c1cc(O)c(O)c(O)c1)c1cc(O)c(O)c(O)c1 (stereo partly drawn) [tellimagrandin I]
- antitumor effect, in words [1]: much less effective antitumor agents

Compound: O=C1OC[C@H]2OC(O)[C@@H]3OC(=O)c4cc(O)c(O)c(O)c4-c4c(cc(O)c(O)c4O)C(=O)O[C@H]3[C@@H]2OC(=O)c2cc(O)c(O)c(O)c2-c2c1cc(O)c(O)c2O (stereo partly drawn) [pedunculagin]
- antitumor effect, in words [1]: much less effective antitumor agents
